Measurements reported in patent US11760764B2, “Methods and compositions for targeting PD-L1” (Aligos Therapeutics, Inc., priority 2020, dated 2023).
Read-outs that look alike come from different tables or passages of the source.

Assays:
[1] = target: PD-1/PD-L1 interaction (PDL1-6×His protein, PD1-Fc-Avi-Biotin protein) (Homo sapiens, UniProt Q9NZQ7); experiment: PDL1/PD1 Binding Assay; conditions: 0.3 nM PDL1, 2.5 nM PD1
Method: Compounds to be tested were serially diluted in DMSO, and further diluted in assay buffer (25 mM Hepes pH 7.4, 150 mM NaCl, 0.005% Tween 20, BSA 0.01%). Diluted compounds were added to the wells with final concentration of DMSO at 1%. PDL1-6×His protein was added to the wells, mixed well with compound. The plates were incubated for 30 min at room temperature. PD1-Fc-Avi-Biotin protein was added to the wells. […] After a binding time of 30 min at room temperature, Anti-6×His Acceptor beads (final concentration 20 ug/ml) were added to the wells, and the incubation continued for 1 h. Streptavidin Donor beads (final concentration 20 ug/mL) were added at reduced light. The plates were sealed with foil and incubated in the dark for additional 1 h or overnight before reading on an Envision reader. The IC50s were determined by fitting the curves using a four-parameter equation in Graphpad Prism 8.

[2] = target: T1, PD-1/PD-L1 interaction (Jurkat cells overexpressing PD-1 co-cultured with PD-L1 expressing CHO cells) (Homo sapiens, UniProt Q9NZQ7); experiment: PD-1/PD-L1 NFAT Reporter Assay; type: cell-based; conditions: Table C-1; Jurkat/CHO co-culture, 6 hrs at 37° C., luciferase activity
T1 construct: expressed in transfected cells; Jurkat cells (PD-1 and NF-AT luciferase construct)
Method: Blocking the PD-1/PD-L1 interaction will release the inhibitory signal and results in TCR signaling and NFAT-mediated luciferase activity.
CHO cells expressing surface-bound anti-CD3 antibodies and PD-L1 were first seeded overnight and treated with the compounds. Jurkat cells overexpressing PD-1 and a luciferase construct under NF-AT promoter were then immediately seeded on the monolayer of CHO cells. The co-culture was then incubated for 6 hrs at 37° C. Luciferase activity was assessed by adding the ONE-Glo reagent and measuring luminescence with a plate reader. EC50s values were determined from the fit of the dose-response curves

[3] = Table C-1, read-out: Biological Data Biochem PD-1/PD-L1
[4] = Table C, read-out: PD-1/PD-L1 PPI IC50

Chain of PD-1/PD-L1 interaction (PDL1-6×His protein, PD1-Fc-Avi-Biotin protein) (Q9NZQ7 19-238 limits assumed): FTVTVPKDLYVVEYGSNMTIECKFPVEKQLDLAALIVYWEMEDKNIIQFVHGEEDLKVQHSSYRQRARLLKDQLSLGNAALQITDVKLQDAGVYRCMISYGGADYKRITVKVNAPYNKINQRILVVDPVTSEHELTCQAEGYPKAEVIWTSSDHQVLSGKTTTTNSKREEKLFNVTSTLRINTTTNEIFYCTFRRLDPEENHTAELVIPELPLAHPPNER
T1 sequence (Q9NZQ7 19-290): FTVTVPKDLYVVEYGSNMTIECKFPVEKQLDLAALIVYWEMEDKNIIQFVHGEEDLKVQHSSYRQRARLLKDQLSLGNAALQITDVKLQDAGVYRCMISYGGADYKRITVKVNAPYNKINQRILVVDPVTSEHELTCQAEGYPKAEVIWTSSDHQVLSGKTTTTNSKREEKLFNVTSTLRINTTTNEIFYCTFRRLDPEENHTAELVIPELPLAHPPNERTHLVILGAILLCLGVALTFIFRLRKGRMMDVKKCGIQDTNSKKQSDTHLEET

Compound | IC50 [1, 3] | PD-1/PD-L1 NFAT Reporter Assay [2] | EC50 [2] | IC50 [1, 4]
CCOC(=O)C1CN([C@@H]2CCc3cc(-c4cccc(-c5cccc(-c6cc7c(c(OC)c6)[C@H](N6CC(C(=O)OCC)C6)CC7)c5Cl)c4Cl)cc(OC)c32)C1 (single isomer, unassigned) [Compound L-5] | 100 to 1000 nM | n.r | – | –
CCOC(=O)C1CN([C@H]2CCc3cc(-c4cccc(-c5cccc(-c6cc7c(c(OC)n6)[C@@H](NC[C@@H]6CCC(=O)N6)CC7)c5Cl)c4Cl)nc(OC)c32)C1 (single isomer, unassigned) [Compound N-1A] | – | – | 10 to 100 nM | –
COCCN1CCc2c(cc(-c3cccc(-c4cccc(-c5cc6c(c(OC)c5)[C@@H](N5CC(C(=O)O)C5)CC6)c4Cl)c3Cl)nc2OC)C1 [Compound O-2B] | – | – | 10 to 100 nM | –
COc1nc(-c2cccc(-c3cccc(-c4cc5c(c(OC)n4)[C@H](N4CC6(CN(C(C)=O)C6)C4)CC5)c3Cl)c2F)cc2c1[C@H](N1CC3(CN(C(C)=O)C3)C1)CC2 (single isomer, unassigned) [Compound L-11] | ≤ 10 nM | – | ≤ 10 nM | ≤ 10 nM
CCOC(=O)C1CN(C2CCc3cc(-c4cccc(-c5cccc(-c6cc7c(c(OC)n6)CCN(CCOC)C7)c5Cl)c4Cl)cc(OC)c32)C1 (single isomer, unassigned) [Compound O-2A] | – | – | 100 to 1000 nM | –
O=C(O)C1CN([C@@H]2CCc3cc(-c4cccc(-c5cccc(-c6ccc7c(c6)CC[C@H]7N6CC(C(=O)O)C6)c5Cl)c4Cl)ccc32)C1 (single isomer, unassigned) [Compound M-3B] | ≤ 10 nM | – | 100 to 1000 nM | –
CCOC(=O)C1CN([C@H]2CCc3cc(-c4cccc(-c5cccc(-c6cc7c(c(OC)c6)[C@@H](NC[C@@H]6CCC(=O)N6)CC7)c5Cl)c4Cl)cc(OC)c32)C1 (single isomer, unassigned) [Compound N-2A] | – | n.r | – | –
CCOC(=O)C1CN([C@@H]2CCc3cc(-c4cccc(-c5cccc(-c6ccc7c(c6)CC[C@H]7N6CC(C(=O)O)C6)c5Cl)c4Cl)ccc32)C1 (single isomer, unassigned) [Compound M-3A] | ≤ 10 nM | – | 100 to 1000 nM | –
O=C(O)C1CN([C@H]2CCc3cc(-c4cccc(-c5cccc(-c6ccc7c(c6)CC[C@@H]7N6CC(C(=O)O)C6)c5Cl)c4Cl)ccc32)C1 (single isomer, unassigned) [Compound M-2B] | ≤ 10 nM | – | 100 to 1000 nM | –
COc1nc(-c2cccc(-c3cccc(-c4cc5c(c(OC)n4)[C@@H](N4CC6(CCC(=O)N6)C4)CC5)c3Cl)c2F)cc2c1[C@@H](N1CC3(CCC(=O)N3)C1)CC2 (single isomer, unassigned) [Compound L-9] | ≤ 10 nM | – | ≤ 10 nM | ≤ 10 nM
CCOC(=O)C1CN([C@H]2CCc3cc(-c4cccc(-c5cccc(-c6ccc7c(c6)CC[C@@H]7N6CC(C(=O)O)C6)c5Cl)c4Cl)ccc32)C1 (single isomer, unassigned) [Compound M-2A] | ≤ 10 nM | – | 100 to 1000 nM | –
CCOC(=O)C1CN([C@H]2CCc3cc(-c4cccc(-c5cccc(-c6ccc7c(c6)CC[C@@H]7N6CC(C(=O)OCC)C6)c5Cl)c4Cl)ccc32)C1 (single isomer, unassigned) [Compound L-6] | ≤ 10 nM | – | 1000 to 10000 nM | –
O=C(O)C[C@H](O)CN1CCc2ccc(-c3cccc(-c4cccc(-c5ccc6c(c5)CN(C[C@@H](O)CC(=O)O)CC6)c4Cl)c3Cl)cc2C1 [Compound C-6] | – | – | – | ≤ 10 nM
Clc1c(-c2ccc3c(c2)CCNC3)cccc1-c1cccc(-c2ccc3c(c2)CCN(c2ncccn2)C3)c1Cl [Compound K-1] | – | – | – | 1000 to 10000 nM
COc1nc(-c2cccc(-c3cccc(-c4cc5c(c(OC)n4)[C@@H](N4CC6(CN(C(C)=O)C6)C4)CC5)c3Cl)c2F)cc2c1[C@@H](N1CC3(CN(C(C)=O)C3)C1)CC2 (single isomer, unassigned) [Compound L-10] | ≤ 10 nM | – | > 10000 nM | ≤ 10 nM
N[C@@H](CC(=O)O)C(=O)N1CCc2ccc(-c3cccc(-c4cccc(-c5ccc6c(c5)CN(C(=O)[C@@H](N)CC(=O)O)CC6)c4Cl)c3Cl)cc2C1 [Compound J-1] | – | – | – | 10 to 100 nM
COc1nc(-c2cccc(-c3cccc(-c4cc5c(c(OC)n4)[C@@H](NC[C@@H]4CCC(=O)N4)CC5)c3Cl)c2Cl)cc2c1[C@@H](NC[C@@H]1CCC(=O)N1)CC2 [Compound L-3] | – | – | ≤ 10 nM | –
CC(=O)NCCNC1CCc2cc(-c3cccc(-c4cccc(-c5ccc6c(c5)CCC6NCCNC(C)=O)c4Cl)c3Cl)ccc21 (stereo not drawn) [Compound A-3] | – | – | – | 10 to 100 nM
COc1cc(-c2cccc(-c3cccc(-c4cc5c(c(OC)c4)[C@H](N4CC(C(=O)O)C4)CC5)c3Cl)c2Cl)cc2c1[C@H](N1CC(C(=O)O)C1)CC2 (single isomer, unassigned) [Compound M-4B] | 10 to 100 nM | n.r | – | –
CCOC(=O)C1CN([C@H]2CCc3cc(-c4cccc(-c5cccc(-c6cc7c(c(OC)c6)[C@H](NC[C@@H]6CCC(=O)N6)CC7)c5Cl)c4Cl)cc(OC)c32)C1 (single isomer, unassigned) [Compound N-3A] | – | – | 10 to 100 nM | –

Compound | IC50 [1, 3] | PD-1/PD-L1 NFAT Reporter Assay [2] | EC50 [2] | IC50 [1, 4]
Clc1c(-c2ccc3c(n2)CCNC3)cccc1-c1cccc(-c2ccc3c(n2)CCNC3)c1Cl [Compound B-3] | – | – | – | 10 to 100 nM
N[C@@H]1CCc2cc(-c3cccc(-c4cccc(-c5ccc6c(c5)CC[C@H]6N)c4Cl)c3Cl)ccc21 [Compound B-8] | – | – | – | 100 to 1000 nM
COCCN1CCc2c(cc(-c3cccc(-c4cccc(-c5cc6c(c(OC)n5)CCN(CCOC)C6)c4Cl)c3Cl)nc2OC)C1 [Compound O-1] | ≤ 10 nM | – | 1000 to 10000 nM | –
COc1nc(-c2cccc(-c3cccc(-c4cc5c(c(OC)n4)[C@@H](NC[C@@H]4CCC(=O)N4)CC5)c3Cl)c2F)cc2c1[C@@H](NC[C@@H]1CCC(=O)N1)CC2 [Compound L-8] | ≤ 10 nM | – | ≤ 10 nM | ≤ 10 nM
COc1cc(-c2cccc(-c3cccc(-c4cc5c(c(OC)c4)[C@@H](NC[C@@H]4CCC(=O)N4)CC5)c3Cl)c2Cl)cc2c1[C@@H](NC[C@@H]1CCC(=O)N1)CC2 (single isomer, unassigned) [Compound L-2] | – | – | > 10000 nM | –
Cc1cc2c(cc1-c1cccc(-c3cccc(-c4cc5c(cc4C)CNCC5)c3Cl)c1Cl)CCNC2 [Compound B-16] | – | – | – | 100 to 1000 nM
COc1cc(-c2cccc(-c3cccc(-c4cc5c(c(OC)c4)[C@H](NC[C@@H]4CCC(=O)N4)CC5)c3Cl)c2Cl)cc2c1[C@H](NC[C@@H]1CCC(=O)N1)CC2 (single isomer, unassigned) [Compound L-1] | – | – | 10 to 100 nM | –
COc1nc(-c2cccc(-c3cccc(-c4cc5c(c(OC)n4)[C@@H](N4CC(C(=O)O)C4)CC5)c3Cl)c2Cl)cc2c1[C@@H](NC[C@@H]1CCC(=O)N1)CC2 (single isomer, unassigned) [Compound N-1B] | – | – | ≤ 10 nM | –
COc1cc(-c2cccc(-c3cccc(-c4cc5c(c(OC)c4)CNCC5)c3Cl)c2Cl)cc2c1CNCC2 [Compound B-17] | – | – | – | 10 to 100 nM
CC1Cc2cc(-c3cccc(-c4cccc(-c5ccc6c(c5)CC(C)NC6)c4Cl)c3Cl)ccc2CN1 (stereo not drawn) [Compound B-13] | – | – | – | 10 to 100 nM
COc1cc(-c2cccc(-c3cccc(-c4cc5c(c(OC)c4)[C@@H](N4CC(C(=O)O)C4)CC5)c3Cl)c2Cl)cc2c1[C@H](NC[C@@H]1CCC(=O)N1)CC2 (single isomer, unassigned) [Compound N-3B] | – | – | 10 to 100 nM | –
O=C(O)CN1CCC12CCc1cc(-c3cccc(-c4cccc(-c5ccc6c(c5)CCC5(CCN5CC(=O)O)C6)c4Cl)c3Cl)ccc1C2 (stereo not drawn) [Compound H-3] | – | – | – | 100 to 1000 nM
COc1cc(-c2cccc(-c3cccc(-c4cc5c(c(OC)c4)[C@@H](N4CC(C(=O)O)C4)CC5)c3Cl)c2Cl)cc2c1[C@@H](NC[C@@H]1CCC(=O)N1)CC2 (single isomer, unassigned) [Compound N-2B] | – | – | 100 to 1000 nM | –
CCOC(=O)C1CN([C@@H]2CCc3cc(-c4cccc(-c5cccc(-c6ccc7c(c6)CC[C@H]7N6CC(C(=O)OCC)C6)c5Cl)c4Cl)ccc32)C1 (single isomer, unassigned) [Compound L-7] | ≤ 10 nM | – | 100 to 1000 nM | –
CCOC(=O)C1CN([C@H]2CCc3cc(-c4cccc(-c5cccc(-c6cc7c(c(OC)c6)[C@@H](N6CC(C(=O)OCC)C6)CC7)c5Cl)c4Cl)cc(OC)c32)C1 (single isomer, unassigned) [Compound L-4] | ≤ 10 nM | – | 100 to 1000 nM | –
O=C(O)C[C@H](O)CN1CCOc2nc(-c3cccc(-c4cccc(-c5ccc6c(n5)OCCN(C[C@@H](O)CC(=O)O)C6)c4Cl)c3Cl)ccc2C1 [Compound C-5] | – | – | – | 1000 to 10000 nM
O=C(O)C[C@H](O)CN1CCc2nc(-c3cccc(-c4cccc(-c5ccc6c(n5)CCN(C[C@@H](O)CC(=O)O)C6)c4Cl)c3Cl)ccc2C1 [Compound C-3] | – | – | – | 100 to 1000 nM
Clc1c(-c2cc3c(cn2)CNCC3)cccc1-c1cccc(-c2cc3c(cn2)CNCC3)c1Cl [Compound B-4] | – | – | – | 10 to 100 nM
O=C1CC[C@@H](CNC2Cc3ccc(-c4cccc(-c5cccc(-c6ccc7c(c6)CC(NC[C@@H]6CCC(=O)N6)C7)c5Cl)c4Cl)cc3C2)N1 (stereo partly drawn) [Compound A-6] | – | – | – | ≤ 10 nM
